{
  "source": "paper PMC4887995",
  "about": "“Small molecule dual-inhibitors of TRPV4 and TRPA1 for attenuation of inflammation and pain” (Scientific Reports, 2016)",
  "key": {"[1]": {"molecular_target": "TRPV4 (Rattus norvegicus, UniProt Q9ERZ8)", "sequence (Q9ERZ8 whole entry)": "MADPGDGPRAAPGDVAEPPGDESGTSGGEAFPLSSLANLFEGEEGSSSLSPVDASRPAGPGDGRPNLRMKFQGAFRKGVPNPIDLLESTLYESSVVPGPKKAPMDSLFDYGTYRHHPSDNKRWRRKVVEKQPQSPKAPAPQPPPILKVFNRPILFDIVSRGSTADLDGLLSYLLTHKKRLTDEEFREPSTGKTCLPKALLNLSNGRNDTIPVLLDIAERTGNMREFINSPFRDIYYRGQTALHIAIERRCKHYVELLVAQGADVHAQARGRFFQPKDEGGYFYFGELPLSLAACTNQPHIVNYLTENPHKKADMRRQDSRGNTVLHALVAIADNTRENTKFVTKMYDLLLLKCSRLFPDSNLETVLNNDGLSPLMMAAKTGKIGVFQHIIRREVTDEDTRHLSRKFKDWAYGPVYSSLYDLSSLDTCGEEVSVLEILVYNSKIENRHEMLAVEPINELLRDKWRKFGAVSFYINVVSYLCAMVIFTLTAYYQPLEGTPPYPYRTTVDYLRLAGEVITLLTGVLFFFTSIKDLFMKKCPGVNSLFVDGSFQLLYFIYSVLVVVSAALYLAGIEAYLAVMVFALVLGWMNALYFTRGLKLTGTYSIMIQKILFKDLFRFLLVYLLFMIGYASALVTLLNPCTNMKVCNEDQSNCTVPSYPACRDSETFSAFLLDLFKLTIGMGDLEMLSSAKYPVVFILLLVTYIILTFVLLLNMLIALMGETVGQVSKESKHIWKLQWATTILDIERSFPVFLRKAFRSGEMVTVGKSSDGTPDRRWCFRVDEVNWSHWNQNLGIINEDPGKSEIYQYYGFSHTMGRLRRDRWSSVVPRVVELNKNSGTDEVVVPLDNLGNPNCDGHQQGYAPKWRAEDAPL", "test": "Ca++ imaging in primary astrocytes, GSK101 stimulation", "type": "cell-based", "conditions": "GSK101 5 nM", "method": "Figure 4 Compound 16-8 inhibits TRPV4 in I˚ cells more potently than GSK205. […] Inset: Chondrocytes responding to activation with GSK101, fura-2 Ca^++ imaging; right-hand image taken at 5 sec after GSK101 application. […] (B) I˚ astrocytes (rat); dose-response comparison between 16-8 and GSK205 in response to 5 nM GSK101. Inset: Astrocytes responding to activation with GSK101; right-hand image taken at 5 sec after GSK101 application (mean ± SEM, n = 5 independent expts, n ≥ 200 cells/expt; *p < 0.05, t-test).\nAstrocyte cultures were conducted following established protocols. Astrocytes were prepared from Sprague Dawley rat embryos (E18). Briefly, the isolated cortices were minced, and then incubated with trypsin and DNase. Dissociated cells were suspended in Dulbeccco’s Modified Eagle’s Medium (DMEM) supplemented with 10% fetal calf serum and penicillin/streptomycin (100 U/ml and 100 μg/ml, respectively). Thereafter, cell suspensions were plated in 75 cm^2 tissue culture flasks (10 × 10^6 cells/flask) which were pre-coated with poly-L-lysine (10 μg/ml). The cells were maintained in a 10%CO2 incubator at 37 °C."}, "[2]": {"test": "Compound concentration in organs and plasma by LC-MS/MS", "type": "in vivo, mouse", "conditions": "10 mg/kg i.p.", "method": "Mice were treated with 10 mg/kg i.p. of the respective inhibitor. Post-euthanasia harvested tissue was frozen in liquid nitrogen and stored at −80 °C for further analysis.\nFrozen tissue samples were partially thawed and cut into 1 mm slices, 5–15 mg tissue, 2-fold excess water (mass/vol.), 6-fold excess acetonitrile (16-… compounds) or methanol (GSK205) containing appropriate amount of internal standard, and 2.5 mm zirconia/silica bead (Biospec Products Inc.) were added to 500- μL polypropylene (PP) conical tube, homogenized in a Fast-Prep apparatus (Thermo-Savant) at speed “4” for 20 sec at room temp, and centrifuged at 13,600 g for 5 min at room temp. Depending on the expected concentration range of the measured compound, the supernatant was diluted 1/4–1/20 (in Mobile phase A, see below) and placed in autosampler for LC-MS/MS analysis.\nThe LC-MS/MS assay for 16-… compounds and GSK205 was developed on an Agilent 1200 series LC system interfaced with Applied Biosystems API 5500QTrap, a hybrid triple quadruple-linear trap MS/MS spectrometer. Analyst (version 1.6.1) software was used for mass parameters tuning, data acquisition, and quantification. LC column: 3 × 4 mm RP C18 (Phenomenex, AJ0-4287) was operated at 35 °C. Mobile phase A: 0.1% formic acid, 2% acetonitrile, in LC/MS-grade water; mobile phase B: acetonitrile; flow rate: 1 mL/min, 1:1 MS/MS:waste split. Run time was 4 min. Diverter valve was used to send flow to MS/MS only between 1.2 and 2.5 min. The elution gradient was: 0–0.5 min, 1%B; 0.5–1.2 min, 1–95%B; 1.2–1.5 min, 95%B; 1.5–1.6 min, 95–1%B. Autosampler was operated at 4 °C; injection volume was kept at 10–50 μL. Electrospray ionization (ESI) source parameters were: positive ionization mode, curtain gas flow = 30, ionization potential = 5500 V, temperature = 500 °C, nebulizing gas 1 flow = 30, nebulizing gas 2 = 30, declustering potential = 20 V. 16-… compounds and GSK205 were individually infused as 100 nM solutions in 50%A/50%B at 10 μL/min flow rate and parameters optimized to provide maximal ion count for “parent” and collision-produced (“daughter”) MS/MS ions. Parent/daughter quantifier [qualifier] ions utilized: GSK205 (401.1/280[370]), 16-8 (400.1/279.1[91.1], 16-16 (387.1/280[105]), 16-18 (415.2/280[370], 16-19 (414.1/279.2[91.1]. Standard (analyte of interest)/internal standard pairs utilized: GSK205/16-16, 16-8/16-16, 16-18/GSK205, 16-19/16-8.\nCalibration samples (n = 6) were prepared by adding pure standard of the measured compound to tissue homogenate (tissue + 2-fold excess water, mass/vol) in the appropriate range needed for the particular dosing regime. Organs studied were analyzed alongside the study samples. […] Peak integration, calibration, and quantification was performed within Analyst software. […]"}, "[3]": {"molecular_target": "T1, TRPV3 (Mus musculus, UniProt Q8K424)", "T1 sequence (Q8K424 1-791)": "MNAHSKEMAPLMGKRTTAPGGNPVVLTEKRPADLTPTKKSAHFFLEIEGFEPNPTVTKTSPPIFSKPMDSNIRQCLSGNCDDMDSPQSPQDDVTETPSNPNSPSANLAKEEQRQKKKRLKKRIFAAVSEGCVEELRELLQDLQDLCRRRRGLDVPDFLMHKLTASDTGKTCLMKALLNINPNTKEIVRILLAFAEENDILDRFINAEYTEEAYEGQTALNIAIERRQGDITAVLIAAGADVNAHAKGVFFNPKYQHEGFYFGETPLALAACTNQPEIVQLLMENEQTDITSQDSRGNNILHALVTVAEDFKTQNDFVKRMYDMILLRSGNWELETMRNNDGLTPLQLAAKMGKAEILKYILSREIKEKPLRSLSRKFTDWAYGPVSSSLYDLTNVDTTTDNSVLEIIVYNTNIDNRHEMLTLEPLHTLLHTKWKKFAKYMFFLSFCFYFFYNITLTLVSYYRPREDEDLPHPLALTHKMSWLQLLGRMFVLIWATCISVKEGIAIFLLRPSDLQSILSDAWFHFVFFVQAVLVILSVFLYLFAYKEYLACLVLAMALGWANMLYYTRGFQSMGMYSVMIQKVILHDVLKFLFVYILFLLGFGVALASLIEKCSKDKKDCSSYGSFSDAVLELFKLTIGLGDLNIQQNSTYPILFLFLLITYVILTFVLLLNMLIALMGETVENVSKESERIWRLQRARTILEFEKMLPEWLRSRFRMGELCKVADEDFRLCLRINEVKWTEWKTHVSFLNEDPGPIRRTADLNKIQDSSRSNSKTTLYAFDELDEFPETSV", "test": "Ca++ imaging in N2a cells over-expressing TRPV3 (camphor)", "conditions": "5 μM", "description": "(A) Specificity vs TRPV1-3. […] Mean±SEM is shown, ≥100 cells per condition. […] Plot generated from averaged peak ∆Ca^++ concentration of ≥75 cells per data-point.\nN2a cells were used for directed expression of TRP ion channels as described previously[13]. […] All other channels were native channels from mouse, eGFP was co-transfected. […] Ca^++ imaging was performed as described previously[13][14][34]."}},
  "data": [
    {"compound": "CN(CCc1ccc(Nc2nc(-c3ccccc3)cs2)cc1)Cc1ccccc1", "note": "[16-8]", "values": [
      {"measurement": "potency vs GSK205, dose-response of peak ∆Ca++", "setting": "[1]", "value": "significantly increased potency"},
      {"measurement": "concentration in fat and pancreas", "setting": "[2]; after one hour", "value": "above its IC50"},
      {"measurement": "inhibition of TRPV3", "setting": "[3]", "value": "did not inhibit"}
    ]},
    {"compound": "CCN(CCc1ccc(Nc2nc(-c3ccccc3)cs2)cc1)Cc1ccccc1", "note": "[16-19]", "values": [
      {"measurement": "concentration in non-nervous tissue, especially liver and kidney, comparison of compounds", "setting": "[2]; 1 h", "value": "higher concentrations"},
      {"measurement": "concentration at 6 h time-point compared to 1 h time-point", "setting": "[2]; several organs", "value": "10-20 fold"},
      {"measurement": "concentration at 24 h time-point", "setting": "[2]; several organs", "value": "lower than at the 6 h but higher than at the 1 h time-point"},
      {"measurement": "inhibition of TRPV3", "setting": "[3]", "value": "did not inhibit"}
    ]}
  ]
}
